Source: US20160060260A1, “BROMODOMAIN INHIBITORS FOR TREATING DISEASE” (Board of Regents, The University of Texas System, priority 2014, published 2016)

Target: T1, Recombinant human His-tagged Trim24-PHD-bromodomain (Homo sapiens, UniProt O15164)
T1 construct: Recombinant human His-tagged Trim24-PHD-bromodomain (produced in-house); made in house
T1 sequence (O15164 824-1006 limits assumed): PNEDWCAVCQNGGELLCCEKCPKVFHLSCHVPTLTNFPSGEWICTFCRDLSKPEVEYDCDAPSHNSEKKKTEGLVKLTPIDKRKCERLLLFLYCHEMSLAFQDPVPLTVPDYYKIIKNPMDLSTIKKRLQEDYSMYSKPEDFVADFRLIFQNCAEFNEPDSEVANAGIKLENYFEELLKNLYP
Experiment: Trim24 AlphaScreen Assay
Format: binding
Settings: 5 nM Trim24 protein, 15 nM biotinylated H3K23ac (1-33aa) peptide
Method in brief: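 His-tagged Trim24-PHD-bromodomain, biotinylated H3K23ac (1-33aa) peptide and compound incubated 1 h at room temperature in 50 mM Hepes pH 7.5, 100 mM NaCl, 0.12 mM Triton X-100.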

CCCOc1cccc(Oc2cc3c(cc2NS(=O)(=O)c2cnn(C)c2)n(C)c(=O)n3C)c1 [Example 75, N-(1,3-dimethyl-2-oxo-6-(3-propoxyphenoxy)-2,3-dihydro-1H-benzo[d]imidazol-5-yl)-1-methyl-1H-pyrazole-4-sulfonamide] and Cn1cc(S(=O)(=O)Nc2cc3c(cc2Oc2cccc(OCC4CC4)c2)n(C)c(=O)n3C)cn1 [Example 101, N-(6-(3-(cyclopropylmethoxy)phenoxy)-1,3-dimethyl-2-oxo-2,3-dihydro-1H-benzo[d]imidazol-5-yl)-1-methyl-1H-pyrazole-4-sulfonamide] fall in the same range of IC50: 10 to 100 nM for the first, 10 to 100 nM for the second.

Cn1cnc(S(=O)(=O)Nc2cc3c(cc2Oc2cccc(OCC#N)c2)n(C)c(=O)n3C)c1 [Example 76, N-(6-(3-(cyanomethoxy)phenoxy)-1,3-dimethyl-2-oxo-2,3-dihydro-1H-benzo[d]imidazol-5-yl)-1-methyl-1H-imidazole-4-sulfonamide] and Cn1cnc(S(=O)(=O)Nc2cc3c(cc2Oc2cccc(OCCCC#N)c2)n(C)c(=O)n3C)c1 [Example 97, N-(6-(3-(3-cyanopropoxy)phenoxy)-1,3-dimethyl-2-oxo-2,3-dihydro-1H-benzo[d]imidazol-5-yl)-1-methyl-1H-imidazole-4-sulfonamide] fall in the same range of IC50: 100 to 1000 nM for the first, 100 to 1000 nM for the second.

Compared with CCn1cc(S(=O)(=O)Nc2cc3c(cc2Oc2cccc(OCc4ccccc4)c2)n(C)c(=O)n3C)cn1 [Example 77, N-(6-(3-(benzyloxy)phenoxy)-1,3-dimethyl-2-oxo-2,3-dihydro-1H-benzo[d]imidazol-5-yl)-1-ethyl-1H-pyrazole-4-sulfonamide], Cn1ccnc1S(=O)(=O)Nc1cc2c(cc1Oc1cccc(OCc3ccccc3)c1)n(C)c(=O)n2C [Example 80, N-(6-(3-(benzyloxy)phenoxy)-1,3-dimethyl-2-oxo-2,3-dihydro-1H-benzo[d]imidazol-5-yl)-1-methyl-1H-imidazole-2-sulfonamide] is higher in IC50: 100 to 1000 nM for the first, over 1000 nM for the second. The first is the more potent here.

First: Cn1c(=O)n(C)c2cc(Oc3cccc(OCc4ccccc4)c3)c(NS(=O)(=O)c3c[nH]cn3)cc21 [Example 78, N-(6-(3-(benzyloxy)phenoxy)-1,3-dimethyl-2-oxo-2,3-dihydro-1H-benzo[d]imidazol-5-yl)-1H-imidazole-4-sulfonamide]
Second: Cc1cc(S(=O)(=O)Nc2cc3c(cc2Oc2cccc(OCc4ccccc4)c2)n(C)c(=O)n3C)n(C)n1 [Example 79, N-(6-(3-(benzyloxy)phenoxy)-1,3-dimethyl-2-oxo-2,3-dihydro-1H-benzo[d]imidazol-5-yl)-1,3-dimethyl-1H-pyrazole-5-sulfonamide]
The IC50 of the first is lower: 100 to 1000 nM for the first, over 1000 nM for the second.

First: Cn1c(=O)n(C)c2cc(Oc3cccc(OCc4ccccc4)c3)c(NS(=O)(=O)CCO)cc21 [Example 81, N-(6-(3-(benzyloxy)phenoxy)-1,3-dimethyl-2-oxo-2,3-dihydro-1H-benzo[d]imidazol-5-yl)-2-hydroxyethane-1-sulfonamide]
Second: CCCOc1cccc(Oc2cc3c(cc2NS(=O)(=O)CCOC)n(C)c(=O)n3C)c1 [Example 85, N-(1,3-dimethyl-2-oxo-6-(3-propoxyphenoxy)-2,3-dihydro-1H-benzo[d]imidazol-5-yl)-2-methoxyethane-1-sulfonamide]
The IC50 of the first is higher: over 1000 nM for the first, 100 to 1000 nM for the second.

First: CCCOc1cccc(Oc2cc3c(cc2NS(=O)(=O)C2CC2)n(C)c(=O)n3C)c1 [Example 82, N-(1,3-dimethyl-2-oxo-6-(3-propoxyphenoxy)-2,3-dihydro-1H-benzo[d]imidazol-5-yl)cyclopropanesulfonamide]
Second: CCCOc1cccc(Oc2cc3c(cc2NS(=O)(=O)c2c[nH]cn2)n(C)c(=O)n3C)c1 [Example 86, N-(1,3-dimethyl-2-oxo-6-(3-propoxyphenoxy)-2,3-dihydro-1H-benzo[d]imidazol-5-yl)-1H-imidazole-4-sulfonamide]
The IC50 of the first is higher: 100 to 1000 nM for the first, 10 to 100 nM for the second. The second is the more potent here.

CCCOc1cccc(Oc2cc3c(cc2NS(=O)(=O)c2cn(C)cn2)n(C)c(=O)n3C)c1 [Example 83, N-(1,3-dimethyl-2-oxo-6-(3-propoxyphenoxy)-2,3-dihydro-1H-benzo[d]imidazol-5-yl)-1-methyl-1H-imidazole-4-sulfonamide] and Cn1cnc(S(=O)(=O)Nc2cc3c(cc2Oc2cccc(OCC4CC4)c2)n(C)c(=O)n3C)c1 [Example 100, N-(6-(3-(cyclopropylmethoxy)phenoxy)-1,3-dimethyl-2-oxo-2,3-dihydro-1H-benzo[d]imidazol-5-yl)-1-methyl-1H-imidazole-4-sulfonamide] fall in the same range of IC50: 10 to 100 nM for the first, 10 to 100 nM for the second.

First: Cn1cnc(S(=O)(=O)Nc2cc3c(cc2Oc2cccc(OCCCC(F)(F)F)c2)n(C)c(=O)n3C)c1 [Example 84, N-(1,3-dimethyl-2-oxo-6-(3-(4,4,4-trifluorobutoxy)phenoxy)-2,3-dihydro-1H-benzo[d]imidazol-5-yl)-1-methyl-1H-imidazole-4-sulfonamide]
Second: COCCCn1cnc(S(=O)(=O)Nc2cc3c(cc2Oc2cccc(OCC(F)(F)F)c2)n(C)c(=O)n3C)c1 [Example 96, N-(1,3-dimethyl-2-oxo-6-(3-(2,2,2-trifluoroethoxy)phenoxy)-2,3-dihydro-1H-benzo[d]imidazol-5-yl)-1-(3-methoxypropyl)-1H-imidazole-4-sulfonamide]
The IC50 of the first is higher: 100 to 1000 nM for the first, 10 to 100 nM for the second.

Compared with CCCOc1cccc(Oc2cc3c(cc2NS(=O)(=O)c2nnc[nH]2)n(C)c(=O)n3C)c1 [Example 87, N-(1,3-diemthyl-2-oxo-6-(3-propoxyphenoxy)-2,3-dihydro-1H-benzo[d]imidazol-5-yl)-4H-1,2,4-triazole-3-sulfonamide], CCCOc1cccc(Oc2cc3c(cc2NS(=O)(=O)c2c(C)n[nH]c2C)n(C)c(=O)n3C)c1 [Example 92, N-(1,3-dimethyl-2-oxo-6-(3-propoxyphenoxy)-2,3-dihydro-1H-benzo[d]imidazol-5-yl)-3,5-dimethyl-1H-pyrazole-4-sulfonamide] is lower in IC50: 100 to 1000 nM for the first, 10 to 100 nM for the second.

Compared with Cn1c(=O)n(C)c2cc(Oc3cccc(OCC(F)(F)F)c3)c(NS(=O)(=O)c3c[nH]cn3)cc21 [Example 88, N-(1,3-dimethyl-2-oxo-6-(3-(2,2,2-trifluoroethoxy)phenoxy)-2,3-dihydro-1H-benzo[d]imidazol-5-yl)-1H-imidazole-4-sulfonamide], COCCS(=O)(=O)Nc1cc2c(cc1Oc1cccc(OCC(F)(F)F)c1)n(C)c(=O)n2C [Example 89, N-(1,3-dimethyl-2-oxco-6-(3-(2,2,2-trifluoroethoxy)phenoxy)-2,3-dihydro-1H-benzo[d]imidazol-5-yl)-2-methoxyethane-1-sulfonamide] is higher in IC50: 10 to 100 nM for the first, 100 to 1000 nM for the second.

CCCOc1cc(OCCC)cc(Oc2cc3c(cc2NS(=O)(=O)c2cn(C)c(C)n2)n(C)c(=O)n3C)c1 [Example 90, N-(6-(3,5-dipropoxyphenoxy)-1,3-diemthyl-2-oxo-2,3-dihydro-1H-benzo[d]imidazol-5-yl)-1,2-dimethyl-1H-imidazole-4-sulfonamide] and CCCOc1cc(OCCCO)cc(Oc2cc3c(cc2NS(=O)(=O)c2cn(C)c(C)n2)n(C)c(=O)n3C)c1 [Example 98, N-(6-(3-(3-hydroxypropoxy)-5-propoxyphenoxy)-1,3-dimethyl-2-oxo-2,3-dihydro-1H-benzo[d]imidazol-5-yl)-1,2-dimethyl-1H-imidazole-4-sulfonamide] fall in the same range of IC50: 10 to 100 nM for the first, 10 to 100 nM for the second.

CCCOc1cccc(Oc2cc3c(cc2NS(=O)(=O)c2cnn(C)c2C)n(C)c(=O)n3C)c1 [Example 91, N-(1,3-dimethyl-2-oxo-6-(3-propoxyphenoxy)-2,3-dihydro-1H-benzo[d]imidazol-5-yl)-1,5-dimethyl-1H-pyrazole-4-sulfonamide] and Cc1c(S(=O)(=O)Nc2cc3c(cc2Oc2cccc(OCC4CC4)c2)n(C)c(=O)n3C)cnn1C [Example 102, N-(6-(3-(cyclopropylmethoxy)phenoxy)-1,3-dimethyl-2-oxo-2,3-dihydro-1H-benzo[d]imidazol-5-yl)-1,5-dimethyl-1H-pyrazole-4-sulfonamide] fall in the same range of IC50: 10 to 100 nM for the first, 10 to 100 nM for the second.

First: CCCOc1cccc(Oc2cc3c(cc2NS(=O)(=O)c2cc(C)nn2C)n(C)c(=O)n3C)c1 [Example 93, N-(1,3-dimethyl-2-oxo-6-(3-propoxyphenoxy)-2,3-dihydro-1H-benzo[d]imidazol-5-yl)-1,3-dimethyl-1H-pyrazole-5-sulfonamide]
Second: CCCOc1cccc(Oc2cc3c(cc2NS(=O)(=O)c2cccnc2)n(C)c(=O)n3C)c1 [Example 99, N-(1,3-dimethyl-2-oxo-6-(3-propoxyphenoxy)-2,3-dihydro-1H-benzo[d]imidazol-5-yl)pyridine-3-sulfonamide]
The IC50 of the first is higher: 100 to 1000 nM for the first, 10 to 100 nM for the second.

Compared with CCCOc1cc(OCCCOC)cc(Oc2cc3c(cc2NS(=O)(=O)c2cn(C)c(C)n2)n(C)c(=O)n3C)c1 [Example 94, N-(6-(3-(3-methoxypropoxy)-5-propoxyphenoxy)-1,3-dimethyl-2-oxo-2,3-dihydro-1H-benzo[d]imidazol-5-yl)-1,2-dimethyl-1H-imidazole-4-sulfonamide], CCCOc1ccc(F)c(Oc2cc3c(cc2NS(=O)(=O)c2cn(C)cn2)n(C)c(=O)n3C)c1 [Example 104, N-(6-(2-fluoro-5-propoxyphenoxy)-1,3-dimethyl-2-oxo-2,3-dihydro-1H-benzo[d]imidazol-5-yl)-1-methyl-1H-imidazole-4-sulfonamide] is higher in IC50: 10 to 100 nM for the first, over 1000 nM for the second.

First: Cn1c(=O)n(C)c2cc(Oc3cccc(OCC(F)(F)F)c3)c(NS(=O)(=O)C3CCOC3)cc21 (stereo not drawn) [Example 95, N-(1,3-dimethyl-2-oxo-6-(3-(2,2,2-trifluoroethoxy)phenoxy)-2,3-dihydro-1H-benzo[d]imidazol-5-yl)tetrahydrofuran-3-sulfonamide]
Second: CCCOc1cccc(Oc2cc3c(cc2NS(=O)(=O)c2cn(C)cn2)n(C)c(=O)n3C)c1C [Example 103, N-(1,3-dimethyl-6-(2-methyl-3-propoxyphenoxy)-2-oxo-2,3-dihydro-1H-benzo[d]imidazol-5-yl)-1-methyl-1H-imidazole-4-sulfonamide]
The IC50 of the first is lower: 100 to 1000 nM for the first, over 1000 nM for the second.
